Results as given in patent publication US12447153B2, “HER2 mutation inhibitors” (Array BioPharma Inc., priority 2021, dated 2025).

How the values were obtained:
EGFR wild type (EGFR WT) = EGFR wild type (EGFR WT) (Homo sapiens (Human), UniProt P00533); assay: Cellular Phosphorylation Assay, Assay 5 (EGF-stimulated EGFR phosphorylation, NIH 3T3 cells); type: cell-based
[1] = target: ErbB2 with Exon 20 YVMA insertion (HER2-YVMA) (Homo sapiens (Human), UniProt P04626, INS775YVMA); assay: Cellular Phosphorylation Assay, Assay 4 (constitutive ErbB2 phosphorylation, NIH 3T3 cells); type: cell-based
ErbB2 with Exon 20 YVMA insertion (HER2-YVMA), sequence (P04626 other isoform, or with tags, fused parts or gaps ins YVMA behind 775): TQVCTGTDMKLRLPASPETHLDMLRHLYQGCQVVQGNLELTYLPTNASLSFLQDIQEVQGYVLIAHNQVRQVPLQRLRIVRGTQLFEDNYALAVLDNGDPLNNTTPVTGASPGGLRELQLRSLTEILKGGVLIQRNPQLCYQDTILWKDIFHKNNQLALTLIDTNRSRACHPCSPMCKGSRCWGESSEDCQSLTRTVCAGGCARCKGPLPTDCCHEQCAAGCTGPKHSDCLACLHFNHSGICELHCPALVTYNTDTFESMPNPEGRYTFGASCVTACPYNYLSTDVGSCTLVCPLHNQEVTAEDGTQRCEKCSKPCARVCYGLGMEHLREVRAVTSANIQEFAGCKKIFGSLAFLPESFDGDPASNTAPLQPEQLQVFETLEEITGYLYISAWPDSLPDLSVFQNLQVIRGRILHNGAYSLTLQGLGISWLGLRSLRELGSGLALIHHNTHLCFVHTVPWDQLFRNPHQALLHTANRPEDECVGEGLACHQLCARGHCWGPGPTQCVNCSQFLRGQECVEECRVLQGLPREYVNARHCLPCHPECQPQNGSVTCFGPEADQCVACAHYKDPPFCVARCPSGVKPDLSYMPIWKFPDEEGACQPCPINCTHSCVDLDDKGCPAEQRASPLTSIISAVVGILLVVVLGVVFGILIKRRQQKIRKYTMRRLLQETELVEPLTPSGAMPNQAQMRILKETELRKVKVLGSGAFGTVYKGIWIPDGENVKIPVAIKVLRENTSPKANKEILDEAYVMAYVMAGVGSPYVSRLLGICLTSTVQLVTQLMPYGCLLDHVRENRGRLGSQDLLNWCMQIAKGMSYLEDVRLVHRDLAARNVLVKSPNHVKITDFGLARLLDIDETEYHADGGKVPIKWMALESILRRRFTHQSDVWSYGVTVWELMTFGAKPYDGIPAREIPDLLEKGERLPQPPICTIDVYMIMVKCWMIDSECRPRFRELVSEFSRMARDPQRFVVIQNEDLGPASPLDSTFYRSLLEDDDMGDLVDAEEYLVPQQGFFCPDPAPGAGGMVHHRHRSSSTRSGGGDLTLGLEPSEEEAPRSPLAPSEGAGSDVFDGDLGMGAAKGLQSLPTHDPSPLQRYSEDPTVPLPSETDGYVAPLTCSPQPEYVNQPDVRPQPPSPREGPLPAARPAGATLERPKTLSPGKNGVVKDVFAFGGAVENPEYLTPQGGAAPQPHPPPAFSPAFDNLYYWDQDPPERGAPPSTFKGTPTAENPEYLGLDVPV

EGFR = EGFR (Homo sapiens (Human), UniProt P00533); assay: ErbB Enzyme Assay (HTRF KinEASE-TK), Assay 3; type: biochemical
EGFR, sequence (P00533 25-1210): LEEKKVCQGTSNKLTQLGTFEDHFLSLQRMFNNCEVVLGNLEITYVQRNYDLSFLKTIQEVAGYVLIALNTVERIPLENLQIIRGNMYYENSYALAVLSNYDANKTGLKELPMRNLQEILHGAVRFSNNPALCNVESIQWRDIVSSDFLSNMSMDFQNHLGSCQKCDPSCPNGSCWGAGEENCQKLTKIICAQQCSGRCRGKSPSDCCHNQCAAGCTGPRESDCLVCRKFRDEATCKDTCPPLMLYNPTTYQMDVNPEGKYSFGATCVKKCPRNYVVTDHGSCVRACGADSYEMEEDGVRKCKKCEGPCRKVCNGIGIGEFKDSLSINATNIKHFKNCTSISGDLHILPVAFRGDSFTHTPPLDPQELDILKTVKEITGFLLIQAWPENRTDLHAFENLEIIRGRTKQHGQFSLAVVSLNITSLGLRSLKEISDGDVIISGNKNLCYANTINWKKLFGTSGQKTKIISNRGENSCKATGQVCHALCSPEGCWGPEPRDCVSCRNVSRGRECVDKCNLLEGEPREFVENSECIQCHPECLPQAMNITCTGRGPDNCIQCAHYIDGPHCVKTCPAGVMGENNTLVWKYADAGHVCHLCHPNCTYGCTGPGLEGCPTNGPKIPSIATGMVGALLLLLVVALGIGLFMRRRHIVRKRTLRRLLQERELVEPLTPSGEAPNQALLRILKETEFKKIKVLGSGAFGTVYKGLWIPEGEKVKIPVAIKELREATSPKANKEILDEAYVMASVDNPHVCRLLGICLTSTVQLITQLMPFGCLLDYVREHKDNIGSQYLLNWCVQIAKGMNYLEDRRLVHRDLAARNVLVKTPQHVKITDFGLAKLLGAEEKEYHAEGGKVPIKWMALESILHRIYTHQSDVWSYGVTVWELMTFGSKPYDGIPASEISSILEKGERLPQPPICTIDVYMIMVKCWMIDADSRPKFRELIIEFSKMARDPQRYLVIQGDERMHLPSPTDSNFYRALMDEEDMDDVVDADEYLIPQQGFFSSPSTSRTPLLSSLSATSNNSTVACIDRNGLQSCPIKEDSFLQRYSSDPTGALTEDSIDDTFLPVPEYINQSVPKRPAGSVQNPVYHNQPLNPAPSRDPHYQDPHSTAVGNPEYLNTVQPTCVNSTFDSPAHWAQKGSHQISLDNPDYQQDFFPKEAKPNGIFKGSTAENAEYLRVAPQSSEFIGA

ErbB2 WT = ErbB2 WT (Homo sapiens (Human), UniProt P04626); assay: ErbB Enzyme Assay (HTRF KinEASE-TK), Assay 2; type: biochemical
ErbB2 WT, sequence (P04626 23-1255): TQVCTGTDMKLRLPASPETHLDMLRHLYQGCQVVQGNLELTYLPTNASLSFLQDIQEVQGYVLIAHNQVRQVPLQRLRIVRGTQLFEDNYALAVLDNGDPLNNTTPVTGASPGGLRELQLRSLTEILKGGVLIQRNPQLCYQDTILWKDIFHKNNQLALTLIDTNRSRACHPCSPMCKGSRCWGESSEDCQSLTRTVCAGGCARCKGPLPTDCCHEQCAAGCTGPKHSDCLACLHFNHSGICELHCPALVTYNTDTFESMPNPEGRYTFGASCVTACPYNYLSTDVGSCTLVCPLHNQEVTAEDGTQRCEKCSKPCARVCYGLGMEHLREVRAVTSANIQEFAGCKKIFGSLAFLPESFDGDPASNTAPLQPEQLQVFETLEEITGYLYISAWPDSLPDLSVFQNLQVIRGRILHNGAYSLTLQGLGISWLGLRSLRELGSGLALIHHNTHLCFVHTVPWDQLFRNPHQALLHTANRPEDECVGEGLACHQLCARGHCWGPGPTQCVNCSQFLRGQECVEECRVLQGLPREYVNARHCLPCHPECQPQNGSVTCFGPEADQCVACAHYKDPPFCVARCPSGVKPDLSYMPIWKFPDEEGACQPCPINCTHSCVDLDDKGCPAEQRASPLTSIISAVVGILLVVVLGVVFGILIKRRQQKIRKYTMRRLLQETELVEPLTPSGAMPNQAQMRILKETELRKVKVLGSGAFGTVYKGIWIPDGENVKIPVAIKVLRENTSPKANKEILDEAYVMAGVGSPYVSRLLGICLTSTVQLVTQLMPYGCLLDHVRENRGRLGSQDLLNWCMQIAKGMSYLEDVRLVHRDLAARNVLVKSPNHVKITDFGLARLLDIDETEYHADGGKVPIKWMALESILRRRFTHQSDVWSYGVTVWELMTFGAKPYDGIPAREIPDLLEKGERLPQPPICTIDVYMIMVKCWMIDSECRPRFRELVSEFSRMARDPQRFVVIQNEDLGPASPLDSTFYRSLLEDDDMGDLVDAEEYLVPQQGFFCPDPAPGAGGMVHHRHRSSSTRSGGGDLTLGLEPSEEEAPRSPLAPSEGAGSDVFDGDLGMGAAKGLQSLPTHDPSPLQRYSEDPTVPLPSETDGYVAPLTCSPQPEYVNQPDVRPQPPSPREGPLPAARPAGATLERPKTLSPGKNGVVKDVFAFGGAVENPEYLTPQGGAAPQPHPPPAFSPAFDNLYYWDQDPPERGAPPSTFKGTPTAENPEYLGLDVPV

[2] = EGF-stimulated EGFR WT phosphorylation
[3] = cellular EGFR WT phosphorylation, EGF-stimulated
[4] = cellular ErbB2 YVMA phosphorylation

EGFR wild type (EGFR WT), sequence (P00533 25-1210): as the sequence (P00533 25-1210) above

SMILES | IC50 (EGFR wild type (EGFR WT); [2]) [nM] | IC50 ([1]; ErbB2 YVMA phosphorylation) [nM] | IC50 (EGFR; EGFR enzyme) [nM] | IC50 (ErbB2 WT; ErbB2 WT enzyme) [nM] | IC50 (EGFR wild type (EGFR WT); [3]) [nM] | IC50 [1, 4] [nM] | IC50 (EGFR; EGFR enzyme assay) [nM] | IC50 (ErbB2 WT; ErbB2 WT enzyme assay) [nM]
C=CC(=O)N1C[C@@H]2C[C@H]1CN(c1ccc3ncnc(Nc4cc(C)c(Oc5ccc6c(c5)ncn6C)cc4F)c3n1)C2 [Example 102, 1-((1R,5S)-3-(4-((2-fluoro-5-methyl-4-((1-methyl-1H-benzo[d]imidazol-5-yl)oxy)phenyl)amino)pyrido[3,2-d]pyrimidin-6-yl)-3,6-diazabicyclo[3.2.1]octan-6-yl)prop-2-en-1-one] | ≥ 5000 | 15.4 | ≥ 10000 | 461 |  |  |  | 
C=CC(=O)N1CC2(CCN(c3ccc4ncnc(Nc5ccc(Oc6ccn7ncnc7c6)c(C)c5F)c4n3)C2)C1 [Example 307] |  |  |  |  | ≥ 5000 | 36.6 | ≥ 10000 | 104
C=CC(=O)N1CC[C@H](c2ccc3ncnc(Nc4ccc(Oc5cnc6c(c5)ncn6C)c(Cl)c4)c3n2)CC1(C)C (racemic) [Example 272] |  |  |  |  | ≥ 5000 | 76.9 | ≥ 10000 | 124
C=CC(=O)N1CCC(Oc2nc3c(Nc4ccc(Oc5ccc6cn(C)nc6c5)c(Cl)c4F)ncnc3cc2OC)CC1 [Example 156, 1-(4-((4-((3-chloro-2-fluoro-4-((2-methyl-2H-indazol-6-yl)oxy)phenyl)amino)-7-methoxypyrido[3,2-d]pyrimidin-6-yl)oxy)piperidin-1-yl)prop-2-en-1-one] | 215 | 19.6 | 110 | 20.3 |  |  |  | 
C=CC(=O)N1C[C@H]2C[C@@H]1CN2c1ccc2ncnc(Nc3ccc(Oc4ccn5ncnc5c4)c(Cl)c3F)c2n1 [Example 92, 1-((1R,4R)-5-(4-((4-([1,2,4]triazolo[1,5-a]pyridin-7-yloxy)-3-chloro-2-fluorophenyl)amino)pyrido[3,2-d]pyrimidin-6-yl)-2,5-diazabicyclo[2.2.1]heptan-2-yl)prop-2-en-1-one] | 1880 | 15.4 | 2430 | 126 |  |  |  | 
CC#CC(=O)N1CC[C@@H]2C[C@H]1CN2c1ccc2ncnc(Nc3cc(Cl)c(Oc4ccn5ncnc5c4)cc3F)c2n1 [Example 315] |  |  |  |  | ≥ 5000 | 68.8 | ≥ 10000 | 119
C=CC(=O)N1CCCC[C@@H](c2ccc3ncnc(Nc4ccc(Oc5ccc6c(c5)ncn6C)c(C)c4)c3n2)C1 (single isomer, unassigned) [Example 171] | ≥ 5000 | 26.3 | ≥ 10000 | 13.4 |  |  |  | 
C=CC(=O)N1C[C@H]2C[C@H](c3ccc4ncnc(Nc5cc(C)c(Oc6ccn7ncnc7c6)cc5F)c4n3)C[C@H]2C1 [Example 201, 1-((3aR,5s,6aS)-5-(4-((4-([1,2,4]triazolo[1,5-a]pyridin-7-yloxy)-2-fluoro-5-methylphenyl)amino)pyrido[3,2-d]pyrimidin-6-yl)hexahydrocyclopenta[c]pyrrol-2(1H)-yl)prop-2-en-1-one] | ≥ 5000 | 213 | 9450 | 68.1 |  |  |  | 
C=CC(=O)N1CCN(c2ccc3ncnc(Nc4ccc(Oc5ccc6c(c5)ncn6C)c(C)c4F)c3n2)CC12CC2 [Example 339] |  |  |  |  | 361 | 16.4 | ≥ 10000 | 14.1
C=CC(=O)N1CCCN(c2ccc3ncnc(Nc4cc(C)c(Oc5ccn6ncnc6c5)cc4F)c3n2)CC1(C)C [Example 260] |  |  |  |  | ≥ 5000 | 114 | 4510 | 41.5
C=CC(=O)N1CCN(c2ccc3ncnc(Nc4ccc(Oc5ccn6ncnc6c5)c(C)c4F)c3n2)CC12CCC2 [Example 308] |  |  |  |  | 110 | 8.4 | 432 | 15.5
C=CC(=O)N1CCN(c2ccc3ncnc(Nc4ccc(Oc5ccn6ncnc6c5)c(Cl)c4F)c3n2)C[C@H]1C(C)C [Example 291] |  |  |  |  | 276 | 9.5 | 462 | 14.9
C=CC(=O)N1[C@@H]2CC[C@H]1C[C@@H](c1ccc3ncnc(Nc4ccc(Oc5ccn6ncnc6c5)c(C)c4)c3n1)C2 [Example 215, 1-((1R,3r,5S)-3-(4-((4-([1,2,4]triazolo[1,5-a]pyridin-7-yloxy)-3-methylphenyl)amino)pyrido[3,2-d]pyrimidin-6-yl)-8-azabicyclo[3.2.1]octan-8-yl)prop-2-en-1-one] | ≥ 5000 | 29.5 | 3310 | 29.5 |  |  |  | 
C=CC(=O)N1CCN(c2ccc3ncnc(Nc4cc(Cl)c(Oc5ccc6c(c5)ncn6C)cc4F)c3n2)CC1(C)C [Example 76, 1-(4-(4-((5-chloro-2-fluoro-4-((1-methyl-1H-benzo[d]imidazol-5-yl)oxy)phenyl)amino)pyrido[3,2-d]pyrimidin-6-yl)-2,2-dimethylpiperazin-1-yl)prop-2-en-1-one] | ≥ 5000 | 17.1 | ≥ 10000 | 33.4 |  |  |  | 
C=CC(=O)N1C2CC1CN(c1ccc3ncnc(Nc4ccc(Oc5cnc6c(c5)ncn6C)c(C)c4F)c3n1)C2 [Example 438] |  |  |  |  | ≥ 5000 | 9.8 | ≥ 10000 | 352
C=CC(=O)N1[C@H]2CC[C@@H]1[C@H](c1ccc3ncnc(Nc4cc(C)c(Oc5ccn6ncnc6c5)cc4F)c3n1)CC2 [Example 428] |  |  |  |  | 954 | 24.7 | 1480 | 62.4

More lines, now with the values ahead:

IC50 (EGFR wild type (EGFR WT); [2]) [nM] | IC50 ([1]; ErbB2 YVMA phosphorylation) [nM] | IC50 (EGFR; EGFR enzyme) [nM] | IC50 (ErbB2 WT; ErbB2 WT enzyme) [nM] | IC50 (EGFR wild type (EGFR WT); [3]) [nM] | IC50 [1, 4] [nM] | IC50 (EGFR; EGFR enzyme assay) [nM] | IC50 (ErbB2 WT; ErbB2 WT enzyme assay) [nM] | SMILES
 |  |  |  | 3360 | 44 | 1580 | 55.5 | C=CC(=O)N1C[C@@H]2C[C@H]1C[C@H]2c1ccc2ncnc(Nc3cc(C)c(Oc4ccn5ncnc5c4)cc3F)c2n1 [Example 373]
 |  |  |  | 3440 | 87.6 | ≥ 10000 | 370 | C=CC(=O)N1CCN(c2ccc3ncnc(Nc4ccc(Oc5ccn6ncnc6c5)cc4C(F)(F)F)c3n2)CC1(C)C [Example 448]
 |  |  |  | ≥ 5000 | 34.6 | 1970 | 43.1 | C=CC(=O)N1C[C@H]2CC[C@H](c3ccc4ncnc(Nc5ccc(Oc6ccn7ncnc7c6)c(C)c5)c4n3)[C@H]2C1 [Example 409]
 |  |  |  | ≥ 5000 | 66.3 | 4560 | 54 | C=CC(=O)N1C[C@@H]2C[C@H]1CC[C@@H]2c1ccc2ncnc(Nc3cc(C)c(Oc4ccc5c(c4)ncn5C)cc3F)c2n1 [Example 378]
 |  |  |  | ≥ 5000 | 33.6 | 5600 | 119 | C=CC(=O)N1C[C@H]2C[C@@H]1[C@H](c1ccc3ncnc(Nc4ccc(Oc5cnc6c(c5)ncn6C)c(C)c4F)c3n1)C2 [Example 418]
 |  |  |  | ≥ 5000 | 50.5 | ≥ 10000 | 212 | C=CC(=O)N1C[C@H]2CC[C@@H]1[C@@H](c1ccc3ncnc(Nc4cc(C)c(Oc5cnc6c(c5)ncn6C)cc4F)c3n1)C2 [Example 425]
 |  |  |  | 238 | 16.5 | 465 | 17.6 | C=CC(=O)N1CCN(c2ccc3ncnc(Nc4cc(Cl)c(Oc5ccn6ncnc6c5)cc4F)c3n2)CC1C(F)F (centres unmarked) [Example 365]
